From patent US20200171005A9, “Heterobifunctional Pan-Selectin Antagonists Having a Triazole Linker” (GlycoMimetics, Inc., priority 2015, published 2020) come the findings set out here.

The target in assay [1] is T1, E-selectin (E-selectinLEC2 construct) (Homo sapiens, UniProt P16581).
T1 construct: a construct consisting of the lectin domain, the EGF like domain, and the first two short consensus repeats (E-selectinLEC2)
T1 sequence (P16581 22-301 limits assumed): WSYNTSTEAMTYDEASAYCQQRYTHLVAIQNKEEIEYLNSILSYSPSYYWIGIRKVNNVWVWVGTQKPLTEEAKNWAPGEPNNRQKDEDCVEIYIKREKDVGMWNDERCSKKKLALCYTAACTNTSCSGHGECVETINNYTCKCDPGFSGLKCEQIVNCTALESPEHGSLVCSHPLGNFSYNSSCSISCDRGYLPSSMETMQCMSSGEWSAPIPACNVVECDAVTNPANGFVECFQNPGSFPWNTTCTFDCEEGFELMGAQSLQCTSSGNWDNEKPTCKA
As to the kind of experiment: Microscale Thermophoresis (MST) affinity assay for E-selectin. Conditions: labeled E-selectinLEC2, HEPES buffer pH 7.4, 1 mM CaCl2, 25° C.; read-out: Binding Affinity (KD) to E-Selectin Determined by MST. As for the experimental part:
For E-selectin, a construct consisting of the lectin domain, the EGF like domain, and the first two short consensus repeats (E-selectinLEC2) was labeled using the amine reactive protein labeling kit BLUE-NHS from NanoTemper Technologies GmbH (Munich, Germany).
The Microscale Thermophoresis (MST) experiments were carried out in a HEPES buffer adjusted to pH 7.4 containing 150 mM NaCl, 1 mM CaCl2 and 0.05% Tween 20 at a temperature of 25° C. with 50% LED power, 50% laser power, laser on time of 30 seconds, and laser off time of 5 seconds with standard treated capillaries. A fixed concentration of the labeled E-selectinLEC2 protein was incubated for 20 minutes with a 15-datapoint […] 1:1 dilution of ligand starting about 30 times above the expected KD. The observed data points were fitted using the single-site binding function of Alan Cooper, Tutorial Chemistry Texts, Vol 16: Biophysical Chemistry; Royal Society of Chemistry: Cambridge, 2004.
On the technique in general: In MST a laser heats a spot of the sample, and binding alters the fluorescence response.

The target in assay [2] is T2, P-selectin (P-selectin/IgG) (Homo sapiens, UniProt P16109).
T2 sequence (P16109 42-771): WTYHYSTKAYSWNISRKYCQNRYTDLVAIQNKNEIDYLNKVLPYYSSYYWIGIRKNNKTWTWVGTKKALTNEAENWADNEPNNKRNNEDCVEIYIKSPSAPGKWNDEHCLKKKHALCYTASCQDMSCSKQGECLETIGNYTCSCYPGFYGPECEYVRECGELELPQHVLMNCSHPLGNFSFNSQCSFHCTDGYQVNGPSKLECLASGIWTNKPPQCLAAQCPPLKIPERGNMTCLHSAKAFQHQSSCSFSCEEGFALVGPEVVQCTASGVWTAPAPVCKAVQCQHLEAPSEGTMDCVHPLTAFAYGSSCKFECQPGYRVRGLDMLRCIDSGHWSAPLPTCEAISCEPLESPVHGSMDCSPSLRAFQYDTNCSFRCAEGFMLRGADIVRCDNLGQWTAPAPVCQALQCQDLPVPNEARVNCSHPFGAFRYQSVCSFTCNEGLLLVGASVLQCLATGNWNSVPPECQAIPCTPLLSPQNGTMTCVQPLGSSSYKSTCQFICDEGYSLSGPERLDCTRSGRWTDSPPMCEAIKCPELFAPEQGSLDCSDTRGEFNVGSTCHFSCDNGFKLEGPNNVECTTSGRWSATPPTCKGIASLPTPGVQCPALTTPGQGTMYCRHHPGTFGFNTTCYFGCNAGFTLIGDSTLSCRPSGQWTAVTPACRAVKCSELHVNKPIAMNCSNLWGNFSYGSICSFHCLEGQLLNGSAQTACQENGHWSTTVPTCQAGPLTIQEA
As to the kind of experiment: Cell-free P-selectin ligand competitive binding assay (sLe^a-PAA). Conditions: P-selectin/IgG coated plate, sLe^a-PAA streptavidin-POD complex, 25° C., 2 hours; read-out: IC50, Binding Affinity to P-Selectin Determined by Competitive Binding Assay. How it is done: The cell-free P-selectin ligand binding assay was adapted from Weitz-Schmidt et al (G. Weitz-Schmidt, D. Stokmaier, G. Scheel, N. E. Nifant'ev, A. B. Tuzikov, N. V. Bovin, Anal Biochem 1996, 238, 184-190). A MaxiSorp 96-well flat bottom microtiter plate purchased from Nalge Nunc International (Penfield, N.Y., USA) was coated with P-selectin/IgG by incubation with 100 μL/well of the purified protein at a concentration of 3 μg/ml in 10 mM HEPES-NaOH pH 7.4, 150 mM NaCl, 1 mM CaCl2 (HAB-Ca^+). After an overnight incubation at 4° C., the plate was washed three times with HAB-Ca^+ followed by a 2 hour incubation with 200 μL/well of a solution of 3% BSA in HAB-Ca^+ at room temperature to block nonspecific binding. During this incubation, inhibitory test compounds, diluted in HAB-Ca^+, were titrated by a twofold serial and mixed with an equal volume of 0.2 μg/ml of a preformed complex of a biotinylated sialyl Lewis' polyacrylamide polymer (sLe^a-PAA) purchased form GlycoTech Inc. (Gaithsburg, Md., USA) and horseradish peroxidase-labeled streptavidin (streptavidin-POD) purchased from Roche (Rotkreuz, Switzerland). After blocking, the microtiter plate was washed three times with HAB-Ca^+ and 100 μL/well of the inhibitor dilution series premixed with sLe^a-PAA streptavidin-POD complex was transferred to the different wells of the plate. The binding reaction was allowed to proceed at 25° C. After 2 hours, the plate was washed twice with HAB-Ca^+, and 100 μL/well of ABTS (2,2′-azino-bis[3-ethylbenzthiazoline-6-sulfonic acid]) substrate reagent purchased from Invitrogen (Paisley, UK) was added to each well. Adding 100 μL/well of 2% oxalic acid stopped the colorimetric reaction was after 5 minutes. The optical density was determined at […] (SpectraMax). The concentration of antagonist required to inhibit binding by 50% was determined and is reported as the IC50 value.

The structures appear in SMILES notation.

One may read the Kd as the free concentration of one partner at which half of the binding sites on the other are occupied at equilibrium, for simple one-to-one binding. In general, IC50 refers to the midpoint of a concentration-inhibition curve. For `CCC1CC(C(=O)NCCCc2cn(CCC(=O)Nc3cc(S(=O)(=O)O)cc4cc(S(=O)(=O)O)cc(S(=O)(=O)O)c34)nn2)CC(OC2OC(CO)C(O)C(OC(CC3CCCCC3)C(=O)O)C2OC(=O)c2ccccc2)C1OC1OC(C)C(O)C(O)C1O` (centres unmarked) [Compound 15a], the Kd in assay [1] amounted to 1500 nM. In addition, the IC50 in assay [2] was determined as 94 µM.
Taken in the same sequence, the figures for `CCC1CC(C(=O)NCCCc2cn(CCCC(=O)Nc3cc(S(=O)(=O)O)cc4cc(S(=O)(=O)O)cc(S(=O)(=O)O)c34)nn2)CC(OC2OC(CO)C(O)C(OC(CC3CCCCC3)C(=O)O)C2OC(=O)c2ccccc2)C1OC1OC(C)C(O)C(O)C1O` (centres unmarked) [Compound 15b] were 970 nM and 82 µM.
Regarding `CCC1CC(C(=O)NCCCc2cn(CCCCC(=O)Nc3cc(S(=O)(=O)O)cc4cc(S(=O)(=O)O)cc(S(=O)(=O)O)c34)nn2)CC(OC2OC(CO)C(O)C(OC(CC3CCCCC3)C(=O)O)C2OC(=O)c2ccccc2)C1OC1OC(C)C(O)C(O)C1O` (centres unmarked) [Compound 15c], in assay [1], the Kd is 1200 nM. For the same compound, the 50% inhibitory concentration (IC50) in assay [2] is 210 µM.
Taken in the same sequence, the figures for `CC1CC(C(=O)NCCCc2cn(CCC(=O)Nc3cc(S(=O)(=O)O)cc4cc(S(=O)(=O)O)cc(S(=O)(=O)O)c34)nn2)CC(OC2OC(CO)C(O)C(OC(CC3CCCCC3)C(=O)O)C2OC(=O)c2ccccc2)C1OC1OC(C)C(O)C(O)C1O` (centres unmarked) [Compound 17] were 3000 nM and 185 µM.
